The source of these data is ChEMBL document CHEMBL4265899, “Trisubstituted thiazoles as potent and selective inhibitors of Plasmodium falciparum protein kinase G (PfPKG)” (Bioorg Med Chem Lett, 2018).

Data set [1] concerns the target Serine/threonine-protein kinase Nek2 (Homo sapiens) (UniProt P51955). In words: Inhibition of human NEK2a at 100 nM.
Data set [2] deals with Mitogen-activated protein kinase kinase kinase kinase 2 (Homo sapiens) (UniProt Q12851). In words: Inhibition of human GCK at 100 nM.
Sequence of Mitogen-activated protein kinase kinase kinase kinase 2 (Homo sapiens) (Q12851 whole entry): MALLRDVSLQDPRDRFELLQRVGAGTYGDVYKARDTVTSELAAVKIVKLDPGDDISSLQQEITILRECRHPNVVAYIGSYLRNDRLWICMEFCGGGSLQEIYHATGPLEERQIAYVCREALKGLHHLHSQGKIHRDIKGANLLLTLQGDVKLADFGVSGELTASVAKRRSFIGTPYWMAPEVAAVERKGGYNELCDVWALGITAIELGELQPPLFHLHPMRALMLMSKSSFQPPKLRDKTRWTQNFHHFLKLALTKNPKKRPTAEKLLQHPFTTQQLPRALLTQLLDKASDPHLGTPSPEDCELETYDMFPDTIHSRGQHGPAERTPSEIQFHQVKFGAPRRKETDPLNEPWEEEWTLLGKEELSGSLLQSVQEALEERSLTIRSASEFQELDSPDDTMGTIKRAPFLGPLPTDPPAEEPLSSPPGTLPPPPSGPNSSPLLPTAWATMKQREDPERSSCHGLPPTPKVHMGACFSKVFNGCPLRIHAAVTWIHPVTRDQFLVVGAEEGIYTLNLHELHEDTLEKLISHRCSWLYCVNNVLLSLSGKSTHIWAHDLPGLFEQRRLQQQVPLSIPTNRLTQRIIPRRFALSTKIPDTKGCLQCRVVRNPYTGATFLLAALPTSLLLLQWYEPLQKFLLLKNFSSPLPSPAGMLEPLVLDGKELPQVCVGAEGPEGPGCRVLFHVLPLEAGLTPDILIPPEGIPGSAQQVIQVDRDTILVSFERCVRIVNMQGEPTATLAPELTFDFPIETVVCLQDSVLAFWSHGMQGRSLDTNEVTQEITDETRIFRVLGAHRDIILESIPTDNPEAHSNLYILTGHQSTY
Data set [3] deals with Receptor tyrosine-protein kinase erbB-4 (Homo sapiens) (UniProt Q15303). In words: Inhibition of human HER4 at 100 nM.
For data set [4], the target named is Interleukin-1 receptor-associated kinase 4 (Homo sapiens) (UniProt Q9NWZ3). Description: Inhibition of human IRAK4 at 100 nM.
Sequence of Interleukin-1 receptor-associated kinase 4 (Homo sapiens) (Q9NWZ3 whole entry): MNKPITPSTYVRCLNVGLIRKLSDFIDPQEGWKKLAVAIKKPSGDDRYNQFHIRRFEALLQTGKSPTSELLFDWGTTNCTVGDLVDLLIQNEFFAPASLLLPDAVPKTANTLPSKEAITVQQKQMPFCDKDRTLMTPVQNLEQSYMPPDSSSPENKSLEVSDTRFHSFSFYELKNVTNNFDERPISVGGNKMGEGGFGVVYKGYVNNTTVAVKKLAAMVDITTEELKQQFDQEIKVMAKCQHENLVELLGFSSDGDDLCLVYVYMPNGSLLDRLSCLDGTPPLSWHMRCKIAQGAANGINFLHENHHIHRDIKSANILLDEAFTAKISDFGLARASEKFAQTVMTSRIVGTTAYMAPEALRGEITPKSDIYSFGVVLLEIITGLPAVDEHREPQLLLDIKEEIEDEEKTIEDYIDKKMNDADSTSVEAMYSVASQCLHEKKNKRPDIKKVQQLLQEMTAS
For data set [5], the target named is T1, Serine/threonine-protein kinase D1 (Homo sapiens) (UniProt Q15139).
T1 sequence (whole entry): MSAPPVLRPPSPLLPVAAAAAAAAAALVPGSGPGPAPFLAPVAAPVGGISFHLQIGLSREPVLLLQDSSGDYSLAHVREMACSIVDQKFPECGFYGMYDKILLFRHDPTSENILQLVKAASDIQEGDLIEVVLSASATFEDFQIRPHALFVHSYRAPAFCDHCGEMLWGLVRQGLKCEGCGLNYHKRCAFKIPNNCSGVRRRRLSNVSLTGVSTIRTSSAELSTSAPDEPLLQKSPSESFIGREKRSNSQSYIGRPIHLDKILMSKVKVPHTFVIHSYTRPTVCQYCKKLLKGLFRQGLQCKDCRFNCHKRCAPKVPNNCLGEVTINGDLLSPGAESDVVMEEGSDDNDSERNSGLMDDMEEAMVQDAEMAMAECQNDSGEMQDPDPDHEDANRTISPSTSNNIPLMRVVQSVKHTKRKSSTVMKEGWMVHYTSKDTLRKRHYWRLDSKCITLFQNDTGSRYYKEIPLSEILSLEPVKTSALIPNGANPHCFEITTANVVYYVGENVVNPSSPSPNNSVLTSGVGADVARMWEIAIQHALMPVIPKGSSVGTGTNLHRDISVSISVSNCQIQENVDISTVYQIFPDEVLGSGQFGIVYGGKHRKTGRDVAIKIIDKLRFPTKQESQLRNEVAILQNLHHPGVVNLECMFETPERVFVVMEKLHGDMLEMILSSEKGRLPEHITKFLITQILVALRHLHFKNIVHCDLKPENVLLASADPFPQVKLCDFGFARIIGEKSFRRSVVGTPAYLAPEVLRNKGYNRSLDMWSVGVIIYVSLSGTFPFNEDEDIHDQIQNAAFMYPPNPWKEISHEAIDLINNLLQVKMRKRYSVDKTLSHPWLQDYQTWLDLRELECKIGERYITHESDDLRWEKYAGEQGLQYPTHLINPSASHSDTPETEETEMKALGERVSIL
In words: Inhibition of human PKD1 at 100 nM.

Data set [6] concerns the target RAC-alpha serine/threonine-protein kinase (Homo sapiens) (UniProt P31749). Description: Inhibition of human PKBalpha at 100 nM.
Data set [7] deals with Casein kinase 2 (Homo sapiens) (UniProt P67870+P68400+P19784+Q8NEV1). Description: Inhibition of human CK2 at 100 nM. Format: protein assay.
In data set [8] the target is Tyrosine-protein kinase JAK2 (Homo sapiens) (UniProt O60674). In words: Inhibition of human JAK2 at 100 nM.
Data set [9] in a line: Permeability of the compound by PAMPA.
Data set [10] deals with High affinity nerve growth factor receptor (Homo sapiens) (UniProt P04629). In words: Inhibition of human TrkA at 100 nM.
Sequence of High affinity nerve growth factor receptor (Homo sapiens) (P04629 33-796 limits assumed): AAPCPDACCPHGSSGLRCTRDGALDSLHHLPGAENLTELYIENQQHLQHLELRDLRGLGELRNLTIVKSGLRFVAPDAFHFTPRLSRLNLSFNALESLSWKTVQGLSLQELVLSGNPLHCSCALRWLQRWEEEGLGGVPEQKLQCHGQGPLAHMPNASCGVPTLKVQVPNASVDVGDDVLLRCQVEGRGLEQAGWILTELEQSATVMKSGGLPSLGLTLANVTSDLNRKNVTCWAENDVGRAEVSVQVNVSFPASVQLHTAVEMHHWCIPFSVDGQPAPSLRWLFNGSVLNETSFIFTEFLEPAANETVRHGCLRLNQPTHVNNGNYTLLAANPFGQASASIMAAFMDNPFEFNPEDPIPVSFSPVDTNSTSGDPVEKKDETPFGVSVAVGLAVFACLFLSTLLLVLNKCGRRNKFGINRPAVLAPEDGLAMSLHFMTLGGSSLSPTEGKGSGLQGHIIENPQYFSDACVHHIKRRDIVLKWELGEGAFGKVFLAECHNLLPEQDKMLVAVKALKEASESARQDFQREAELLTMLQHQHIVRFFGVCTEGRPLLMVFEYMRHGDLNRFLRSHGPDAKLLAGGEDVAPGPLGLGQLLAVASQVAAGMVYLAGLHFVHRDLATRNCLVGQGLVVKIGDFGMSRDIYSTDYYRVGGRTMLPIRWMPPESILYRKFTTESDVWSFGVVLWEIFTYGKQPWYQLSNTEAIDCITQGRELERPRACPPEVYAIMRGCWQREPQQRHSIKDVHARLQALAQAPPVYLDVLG
For data set [11], the target named is Mitogen-activated protein kinase kinase kinase 9 (Homo sapiens) (UniProt P80192). In words: Inhibition of human MLK1 at 100 nM.
Sequence of Mitogen-activated protein kinase kinase kinase 9 (Homo sapiens) (P80192 whole entry, looked up): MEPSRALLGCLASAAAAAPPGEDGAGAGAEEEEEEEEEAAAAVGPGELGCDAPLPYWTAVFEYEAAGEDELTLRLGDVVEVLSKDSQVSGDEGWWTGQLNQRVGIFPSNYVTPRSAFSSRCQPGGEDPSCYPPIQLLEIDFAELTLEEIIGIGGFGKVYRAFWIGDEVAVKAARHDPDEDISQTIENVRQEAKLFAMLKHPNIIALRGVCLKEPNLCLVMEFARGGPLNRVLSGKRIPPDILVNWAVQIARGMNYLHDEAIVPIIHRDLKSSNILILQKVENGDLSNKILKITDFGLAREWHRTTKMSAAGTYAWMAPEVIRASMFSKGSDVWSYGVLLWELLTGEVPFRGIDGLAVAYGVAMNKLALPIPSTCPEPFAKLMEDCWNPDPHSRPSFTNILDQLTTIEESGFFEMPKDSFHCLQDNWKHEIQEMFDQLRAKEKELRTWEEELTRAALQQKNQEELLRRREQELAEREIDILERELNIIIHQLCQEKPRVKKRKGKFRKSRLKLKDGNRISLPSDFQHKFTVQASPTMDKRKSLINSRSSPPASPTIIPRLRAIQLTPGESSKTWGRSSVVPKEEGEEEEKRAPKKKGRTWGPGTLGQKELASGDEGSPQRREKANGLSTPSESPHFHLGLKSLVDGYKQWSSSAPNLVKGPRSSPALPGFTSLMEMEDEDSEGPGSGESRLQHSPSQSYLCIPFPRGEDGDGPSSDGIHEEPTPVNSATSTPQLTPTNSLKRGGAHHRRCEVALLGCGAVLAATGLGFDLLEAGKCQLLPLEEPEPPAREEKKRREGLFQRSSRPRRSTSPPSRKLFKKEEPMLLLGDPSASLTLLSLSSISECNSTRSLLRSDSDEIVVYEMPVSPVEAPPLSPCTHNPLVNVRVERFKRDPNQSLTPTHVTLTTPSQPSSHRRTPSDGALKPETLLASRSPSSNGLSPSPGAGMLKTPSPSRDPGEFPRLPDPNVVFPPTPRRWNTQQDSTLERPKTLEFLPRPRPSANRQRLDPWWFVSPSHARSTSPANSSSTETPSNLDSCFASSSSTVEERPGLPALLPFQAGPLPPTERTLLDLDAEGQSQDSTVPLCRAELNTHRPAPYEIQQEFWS
For data set [12], the target named is Aurora kinase A (Homo sapiens) (UniProt O14965). In words: Inhibition of human Aurora A at 100 nM.
Sequence of Aurora kinase A (Homo sapiens) (O14965 whole entry): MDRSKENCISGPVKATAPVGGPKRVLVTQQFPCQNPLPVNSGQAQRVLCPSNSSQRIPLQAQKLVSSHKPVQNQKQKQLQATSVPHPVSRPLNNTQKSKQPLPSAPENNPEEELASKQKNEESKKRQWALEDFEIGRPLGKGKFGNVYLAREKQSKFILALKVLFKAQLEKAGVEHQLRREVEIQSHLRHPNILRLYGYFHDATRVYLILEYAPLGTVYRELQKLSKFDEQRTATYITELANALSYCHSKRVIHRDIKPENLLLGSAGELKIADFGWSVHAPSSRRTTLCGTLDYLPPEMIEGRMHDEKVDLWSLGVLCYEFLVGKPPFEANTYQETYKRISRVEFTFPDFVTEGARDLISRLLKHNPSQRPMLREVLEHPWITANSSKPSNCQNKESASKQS
Data set [13] addresses Maternal embryonic leucine zipper kinase (Homo sapiens) (UniProt Q14680). Description: Inhibition of human MELK at 100 nM.
Data set [14] addresses cGMP-dependent protein kinase (Plasmodium falciparum, UniProt W7JX98). Description: Inhibition of Plasmodium falciparum protein kinase G.
The target in data set [15] is AMP-activated protein kinase, AMPK (Homo sapiens) (UniProt P54646+O43741+P54619+Q9UGJ0+Q9Y478+Q13131+Q9UGI9). Description: Inhibition of human AMPK at 100 nM. Format: protein-complex assay.

Molecules are shown by their SMILES. Some results are limits rather than exact numbers.

Sequence of Serine/threonine-protein kinase Nek2 (Homo sapiens) (P51955 whole entry): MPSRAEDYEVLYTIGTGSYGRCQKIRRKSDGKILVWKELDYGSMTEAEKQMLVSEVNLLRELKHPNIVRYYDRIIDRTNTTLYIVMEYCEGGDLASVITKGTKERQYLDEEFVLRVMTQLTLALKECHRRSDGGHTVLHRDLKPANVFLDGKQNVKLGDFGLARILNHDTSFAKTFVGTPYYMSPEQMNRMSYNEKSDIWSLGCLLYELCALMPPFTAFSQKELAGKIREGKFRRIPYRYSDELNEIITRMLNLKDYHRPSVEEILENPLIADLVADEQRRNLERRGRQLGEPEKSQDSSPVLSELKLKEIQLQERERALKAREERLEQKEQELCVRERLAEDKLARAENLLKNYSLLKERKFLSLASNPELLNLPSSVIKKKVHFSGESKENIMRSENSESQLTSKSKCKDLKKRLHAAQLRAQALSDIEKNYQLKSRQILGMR
Sequence of Maternal embryonic leucine zipper kinase (Homo sapiens) (Q14680 whole entry, looked up): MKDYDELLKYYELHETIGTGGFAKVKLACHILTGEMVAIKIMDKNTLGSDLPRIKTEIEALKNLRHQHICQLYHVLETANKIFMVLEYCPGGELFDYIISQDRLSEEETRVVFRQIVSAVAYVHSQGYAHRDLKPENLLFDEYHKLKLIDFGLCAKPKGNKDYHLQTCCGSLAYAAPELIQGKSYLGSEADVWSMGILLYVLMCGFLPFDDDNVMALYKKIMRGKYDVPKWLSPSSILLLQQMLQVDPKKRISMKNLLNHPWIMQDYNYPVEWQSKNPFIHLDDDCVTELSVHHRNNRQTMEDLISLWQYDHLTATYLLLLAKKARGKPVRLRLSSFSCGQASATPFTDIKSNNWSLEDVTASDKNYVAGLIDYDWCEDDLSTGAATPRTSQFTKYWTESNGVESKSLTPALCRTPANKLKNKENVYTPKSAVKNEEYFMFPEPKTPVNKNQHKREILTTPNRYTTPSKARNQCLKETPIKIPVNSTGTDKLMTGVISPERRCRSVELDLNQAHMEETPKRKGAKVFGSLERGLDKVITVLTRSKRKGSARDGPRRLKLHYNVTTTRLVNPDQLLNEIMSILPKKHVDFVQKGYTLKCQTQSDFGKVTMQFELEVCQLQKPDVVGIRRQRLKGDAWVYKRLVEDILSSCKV

As a reminder, the inhibition is the change of the read-out against control, counted positive when it falls. A higher inhibition goes with a response far below the control. By Papp is commonly meant a coefficient for how fast a substance crosses the barrier. Low readings indicate poor permeation, high ones ready permeation. Take `CN1CCC(c2nc(-c3ccc(F)c(NS(C)(=O)=O)c3)c(-c3ccnc(NCC4CC4)n3)s2)CC1`: the inhibition in data set [1], in [2], in data set [3], in [4], in data set [5] and in data set [6] was under 70% in each case. For the same compound, the inhibition in data set [7], in data set [8], in data set [10], in data set [11], in [12] and in [13] was under 70% throughout. This compound came in with a Papp in data set [9] of 5.7 ×10⁻⁶ cm/s.
The term IC50 denotes the concentration that inhibits the measured activity by half. Low readings indicate greater potency in that assay, high ones weaker potency in that assay. Regarding `CN1CCC(c2nc(-c3cccc(S(C)(=O)=O)c3)c(-c3ccnc(Nc4ccc(N5CCNCC5)cc4)n3)s2)CC1`, the inhibition was under 70% in data set [1]; under 70% in data set [2]; over 90% in data set [3]; under 70% in data set [4]; under 70% in data set [5]; under 70% in [6]. Besides, the inhibition in data set [7], in [8], in [10], in [15], in data set [11] and in data set [12] was under 70% in each case. Moreover, the inhibition in data set [13] is under 70%. In [14], this compound gave an IC50 of 0.9 nM.
